Assay: xn = mol fraction of the nth substance listed
Conditions: Liquid, Vibrating tube method

CCCCCCCC [octane] + CCCCCCC
mass density [kg/m3]
Conditions | 100 kPa | 500 kPa | 5000 kPa | 10000 kPa | 15000 kPa | 20000 kPa | 25000 kPa | 30000 kPa | 35000 kPa | 40000 kPa
293.15 K, x2 = 0.25 | 698.22 | 698.6 | 702.4 | 706.4 | 710.2 | 713.8 | 717.2 | 720.4 | 723.6 | 726.6
293.15 K, x2 = 0.5002 | 693.9 | 694.3 | 698.1 | 702.2 | 706 | 709.7 | 713.2 | 716.5 | 719.6 | 722.7
293.15 K, x2 = 0.7502 | 689 | 689.4 | 693.4 | 697.5 | 701.4 | 705.1 | 708.7 | 712 | 715.2 | 718.4
303.15 K, x2 = 0.25 | 690.1 | 690.4 | 694.5 | 698.8 | 702.8 | 706.6 | 710.2 | 713.6 | 716.9 | 720.1
303.15 K, x2 = 0.5002 | 685.6 | 686 | 690.2 | 694.5 | 698.6 | 702.5 | 706.1 | 709.6 | 712.9 | 716.1
303.15 K, x2 = 0.7502 | 680.7 | 681 | 685.3 | 689.7 | 693.9 | 697.8 | 701.6 | 705.1 | 708.5 | 711.7
313.15 K, x2 = 0.25 | 681.8 | 682.2 | 686.5 | 691.1 | 695.4 | 699.4 | 703.2 | 706.8 | 710.2 | 713.5
313.15 K, x2 = 0.5002 | 677.3 | 677.7 | 682.1 | 686.8 | 691.1 | 695.2 | 699.1 | 702.7 | 706.2 | 709.6
313.15 K, x2 = 0.7502 | 672.2 | 672.6 | 677.2 | 681.9 | 686.3 | 690.5 | 694.4 | 698.1 | 701.7 | 705.1
323.15 K, x2 = 0.25 | 673.4 | 673.8 | 678.5 | 683.4 | 687.9 | – | – | – | – | –
323.15 K, x2 = 0.5002 | 668.7 | 669.2 | 674 | 678.9 | – | – | – | – | – | –
323.15 K, x2 = 0.7502 | 663.5 | 664 | 668.9 | 674 | – | – | – | – | – | –

Source: the NIST ThermoML archive (doi:10.1016/j.jct.2016.04.014)
